Data taken from patent publication US20140194499A1, “Polyprenylated Benzoylphloroglucinols With Anticancer Activity” (Hong Kong Baptist University, priority 2013, published 2014).
Read-outs that look alike come from different tables or passages of the source.

How the values were obtained:
Assay type in all cases: cell-based
[1] = test system: SMMC-7721 (human hepatocellular carcinoma); experiment: MTT cytotoxicity assay, SMMC-7721; conditions: SMMC-7721 cells
Method: (§1) In the present invention, garciesculentones A and C (compounds 1 and 2) are evaluated for their cytotoxicity against two human hepatoma carcinoma (SMMC-7721 and HepG2) and two human breast adenocarcinoma cell lines (MCF-7 and MDA-MB-231) using MTT assay, palcitaxel is used as positive control. […] In practice, an effective concentration of the tested compound to kill a target cancer cell in vitro is normally about double of the corresponding IC50 value. In addition, wound healing assay is conducted to test whether two novel compounds could affect cell motility.
(§2) Cytotoxicity Assay. Cytotoxic activities of all isolates were evaluated by MTT assay using SMMC-7721 (human hepatocellular carcinoma), HepG2 (human hepatocellular carcinoma), MCF-7 (human breast adenocarcinoma), and MDA-MB-231 (human breast adenocarcinoma). Paclitaxel was used as positive control. The detailed methodology for cytotoxicity assay has already been described in a previous report in Xia, Z.-X.; Zhang, D.-D.; Liang, S.; Lao, Y.-Z.; Zhang, H.; Tan, H.-S.; Chen, S.-L.; Wang, X.-H.; Xu, H.-X., Bioassay-Guided Isolation of Prenylated Xanthones and Polycyclic Acylphloroglucinols from the Leaves of Garcinia nujiangensis. Journal of Natural Products 2012.

[2] = test system: HepG2 (human hepatocellular carcinoma); experiment: MTT cytotoxicity assay, HepG2; conditions: HepG2 cells, read-out: Cytotoxicity IC50, HepG 2
Method: as §1, §2

[3] = test system: MCF-7 (human breast adenocarcinoma); experiment: MTT cytotoxicity assay, MCF-7
Method: as §1, §2

[4] = test system: MDA-MB-231 (human breast adenocarcinoma); experiment: MTT cytotoxicity assay, MDA-MB-231; conditions: MDA-MB-231 cells
Method: as §1, §2

[5] = test system: human esophageal carcinoma (ECA109) cells; experiment: Wound healing assay (cell migration); conditions: 10 and 20 μg/mL, 36 hours
Method: as §1
Wound healing assay. A wound healing assay was performed by using a modified procedure described previously in Jones, J. I.; Gockerman, A.; Busby, W. H., Jr.; Wright, G.; Clemmons, D. R., Insulin-like growth factor binding protein 1 stimulates cell migration and binds to the alpha 5 beta 1 integrin by means of its Arg-Gly-Asp sequence. Proc Nall Acad Sci USA 1993, 90 (22), 10553-7. Briefly, cells were plated in 24 wells plate at 70% confluence in conditioned medium. […] Cell migration into the wound surface was monitored by Olympus 1X71 microscopy and digitally photographed.

Compound | IC50 [1] [µM] | IC50 [2] [µM] | IC50 ([3]; MCF-7 cells) [µM] | IC50 [4] [µM] | Cell migration into the wound area (antimigration effect) [5] | IC50 ([1]; Homo sapiens) [µM] | IC50 ([2]; Homo sapiens) [µM] | IC50 ([3]; Homo sapiens, MCF7, MCF-7 cells) [µM] | IC50 ([4]; Homo sapiens) [µM]
CC(C)=CC[C@H]1C[C@@]23C[C@H](CC=C(C)C)C(C)(C)[C@@](CC=C(C)C)(C(=O)C(OC(=O)c4ccc(O)c(O)c4)=C2OC1(C)C)C3=O (relative stereo) [Compound 1, Garciesculentone A] | 10.8 | 43.2 | 20.3 | 16.4 | do not migrate into and completely close the wound |  |  |  | 
CC(=O)O[C@H]1C(=O)[C@@]2(C)[C@H]([C@H](OC(=O)c3ccccc3)[C@]3(O)C[C@H](OC(=O)[C@H](O)[C@@H](NC(=O)c4ccccc4)c4ccccc4)C(C)=C1C3(C)C)[C@]1(OC(C)=O)CO[C@@H]1C[C@@H]2O [Palcitaxel, Paclitaxel, reference compound] |  |  |  |  |  | 0.0091 | 0.0046 | 0.0015 | 0.0082
Garciesculentone C [Compound 2] | 17.5 | 21.9 | 11.1 | 21.5 | do not migrate into and completely close the wound |  |  |  | 
